Patent USRE39591E1, “6-O-substituted ketolides having antibacterial activity” (Abbott Laboratories, priority 1996, dated 2007)

Test system: up to 32 different microorganisms
Assay: in vitro antibacterial activity (MIC), agar dilution on Brain Heart Infusion (BHI) agar with Steers replicator
Assay type: cell-based
Details: unit assumed
Outline: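 Erythromycin A served as the same-class reference for test-to-test comparability. Test compound was tested over twelve successive dilutions in BHI agar; plates were incubated 20 to 24 hours at 35°-37° C, with MIC taken as the lowest concentration showing no growth, slight haze, or sparse colonies.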

## CCC1OC(=O)C(C)C(=O)C(C)C(OC2OC(C)CC(N(C)C)C2O)C(C)(OCC=Cc2cccc(-c3ccccc3)c2)CC(C)C(=O)C(C)C2NC(=O)OC12C (stereo not drawn) [Example 280, Compound of Formula (IX): L is CO, T is NH2, R is —CH2CH═CH-(3-biphenyl)]
Organism code AA
  MIC: 0.39 µg/mL
Organism code BB
  MIC: 0.39 µg/mL
Organism code CC
  MIC: 50 µg/mL
Organism code DD
  MIC: 0.39 µg/mL
Organism code EE
  MIC: 0.39 µg/mL
Organism code FF
  MIC: 0.39 µg/mL
Organism code GG
  MIC: 50 µg/mL
Organism code HH
  MIC: 0.39 µg/mL
Organism code II
  MIC: 0.2 µg/mL
Organism code JJ
  MIC: 0.05 µg/mL
Organism code KK
  MIC: 0.05 µg/mL
Organism code LL
  MIC: 0.1 µg/mL
Organism code MM
  MIC: 12.5 µg/mL
Organism code NN
  MIC: 0.39 µg/mL
Organism code OO
  MIC: 0.1 µg/mL
Organism code PP
  MIC: 0.78 µg/mL
Organism code QQ
  MIC: > 100 µg/mL
Organism code RR
  MIC: 1.56 µg/mL
Organism code SS
  MIC: > 100 µg/mL
Organism code TT
  MIC: > 100 µg/mL
Organism code UU
  MIC: 3.1 µg/mL
Organism code VV
  MIC: 6.2 µg/mL
Organism code WW
  MIC: 8 µg/mL
Organism code XX
  MIC: 0.06 µg/mL
Organism code YY
  MIC: 0.06 µg/mL
Organism code ZZ
  MIC: 16 µg/mL
Organism code ZZA
  MIC: 1 µg/mL

## CCC1OC(=O)C(C)C(=O)C(C)C(OC2OC(C)CC(N(C)C)C2O)C(C)(OCC=Cc2cccc3c([N+](=O)[O-])cccc23)CC(C)C(=O)C(C)C2NC(=O)OC12C (stereo not drawn) [Example 281, Compound of Formula (IX): L is CO, T is NH2, R is —CH2CH═CH-(5-nitronaphthyl)]
Organism code AA
  MIC: 0.78 µg/mL
Organism code BB
  MIC: 0.78 µg/mL
Organism code CC
  MIC: > 100 µg/mL
Organism code DD
  MIC: 0.78 µg/mL
Organism code EE
  MIC: 0.78 µg/mL
Organism code FF
  MIC: 0.78 µg/mL
Organism code GG
  MIC: > 100 µg/mL
Organism code HH
  MIC: 0.78 µg/mL
Organism code II
  MIC: 0.39 µg/mL
Organism code JJ
  MIC: 0.05 µg/mL
Organism code KK
  MIC: 0.1 µg/mL
Organism code LL
  MIC: 0.1 µg/mL
Organism code MM
  MIC: 50 µg/mL
Organism code NN
  MIC: 0.39 µg/mL
Organism code OO
  MIC: 0.2 µg/mL
Organism code PP
  MIC: 0.78 µg/mL
Organism code QQ
  MIC: > 100 µg/mL
Organism code RR
  MIC: 3.1 µg/mL
Organism code SS
  MIC: > 100 µg/mL
Organism code TT
  MIC: > 100 µg/mL
Organism code UU
  MIC: 3.1 µg/mL
Organism code VV
  MIC: 3.1 µg/mL
Organism code WW
  MIC: 32 µg/mL
Organism code XX
  MIC: 0.25 µg/mL
Organism code YY
  MIC: 0.25 µg/mL
Organism code ZZ
  MIC: 64 µg/mL
Organism code ZZA
  MIC: 1 µg/mL

## CCC1OC(=O)C(C)C(=O)C(C)C(OC2OC(C)CC(N(C)C)C2O)C(C)(OCC=Cc2ccc(-n3cccc3)cc2)CC(C)C(=O)C(C)C2NC(=O)OC12C (stereo not drawn) [Example 282, Compound of Formula (IX): L is CO, T is NH2, R is —CH2CH═CH-(4-pyrrolylphenyl)]
Organism code AA
  MIC: 0.2 µg/mL
Organism code BB
  MIC: 0.1 µg/mL
Organism code CC
  MIC: 100 µg/mL
Organism code DD
  MIC: 0.2 µg/mL
Organism code EE
  MIC: 0.2 µg/mL
Organism code FF
  MIC: 0.1 µg/mL
Organism code GG
  MIC: 100 µg/mL
Organism code HH
  MIC: 0.2 µg/mL
Organism code II
  MIC: 0.05 µg/mL
Organism code JJ
  MIC: 0.01 µg/mL
Organism code KK
  MIC: ≤ 0.005 µg/mL
Organism code LL
  MIC: ≤ 0.005 µg/mL
Organism code MM
  MIC: 25 µg/mL
Organism code NN
  MIC: 0.1 µg/mL
Organism code OO
  MIC: 0.05 µg/mL
Organism code PP
  MIC: 0.2 µg/mL
Organism code QQ
  MIC: > 100 µg/mL
Organism code RR
  MIC: 0.78 µg/mL
Organism code SS
  MIC: > 100 µg/mL
Organism code TT
  MIC: > 100 µg/mL
Organism code UU
  MIC: 1.56 µg/mL
Organism code VV
  MIC: 0.2 µg/mL
Organism code WW
  MIC: 8 µg/mL
Organism code XX
  MIC: 0.03 µg/mL
Organism code YY
  MIC: 0.03 µg/mL
Organism code ZZ
  MIC: 36 µg/mL
Organism code ZZA
  MIC: 0.25 µg/mL

## CCC1OC(=O)C(C)C(=O)C(C)C(OC2OC(C)CC(N(C)C)C2O)C(C)(OCC=Cc2ccc3cc(OC)ccc3c2)CC(C)C(=O)C(C)C2NC(=O)OC12C (stereo not drawn) [Example 283, Compound of Formula (IX): L is CO, T is NH2, R is —CH2CH═CH-(6-methoxy-2-naphthyl)]
Organism code AA
  MIC: 0.1 µg/mL
Organism code BB
  MIC: 0.1 µg/mL
Organism code CC
  MIC: 100 µg/mL
Organism code DD
  MIC: 0.1 µg/mL
Organism code EE
  MIC: 0.1 µg/mL
Organism code FF
  MIC: 0.1 µg/mL
Organism code GG
  MIC: 50 µg/mL
Organism code HH
  MIC: 0.2 µg/mL
Organism code II
  MIC: 0.05 µg/mL
Organism code JJ
  MIC: 0.01 µg/mL
Organism code KK
  MIC: 0.02 µg/mL
Organism code LL
  MIC: ≤ 0.005 µg/mL
Organism code MM
  MIC: 3.1 µg/mL
Organism code NN
  MIC: 0.2 µg/mL
Organism code OO
  MIC: 0.01 µg/mL
Organism code PP
  MIC: 0.2 µg/mL
Organism code QQ
  MIC: > 100 µg/mL
Organism code RR
  MIC: 0.78 µg/mL
Organism code SS
  MIC: > 100 µg/mL
Organism code TT
  MIC: > 100 µg/mL
Organism code UU
  MIC: 0.39 µg/mL
Organism code VV
  MIC: 0.2 µg/mL
Organism code WW
  MIC: 2 µg/mL
Organism code XX
  MIC: ≤ 0.004 µg/mL
Organism code YY
  MIC: ≤ 0.004 µg/mL
Organism code ZZ
  MIC: 4 µg/mL
Organism code ZZA
  MIC: 0.125 µg/mL

## CCC1OC(=O)C(C)C(=O)C(C)C(OC2OC(C)CC(N(C)C)C2O)C(C)(OCC=Cc2cc(Cl)cc(Cl)c2)CC(C)C(=O)C(C)C2NC(=O)OC12C (stereo not drawn) [Example 284, Compound of Formula (IX): L is CO, T is NH2, R is —CH2CH═CH-(3,5-dichlorophenyl)]
Organism code AA
  MIC: 0.2 µg/mL
Organism code BB
  MIC: 0.2 µg/mL
Organism code CC
  MIC: 50 µg/mL
Organism code DD
  MIC: 0.2 µg/mL
Organism code EE
  MIC: 0.2 µg/mL
Organism code FF
  MIC: 0.2 µg/mL
Organism code GG
  MIC: 50 µg/mL
Organism code HH
  MIC: 0.2 µg/mL
Organism code II
  MIC: 0.05 µg/mL
Organism code JJ
  MIC: 0.02 µg/mL
Organism code KK
  MIC: 0.02 µg/mL
Organism code LL
  MIC: ≤ 0.005 µg/mL
Organism code MM
  MIC: 25 µg/mL
Organism code NN
  MIC: 0.2 µg/mL
Organism code OO
  MIC: 0.05 µg/mL
Organism code PP
  MIC: 0.2 µg/mL
Organism code QQ
  MIC: > 100 µg/mL
Organism code RR
  MIC: 1.56 µg/mL
Organism code SS
  MIC: > 100 µg/mL
Organism code TT
  MIC: 50 µg/mL
Organism code UU
  MIC: 0.2 µg/mL
Organism code VV
  MIC: 0.78 µg/mL
Organism code WW
  MIC: 4 µg/mL
Organism code XX
  MIC: 0.03 µg/mL
Organism code YY
  MIC: 0.03 µg/mL
Organism code ZZ
  MIC: 32 µg/mL
Organism code ZZA
  MIC: 0.25 µg/mL
